{"source": "patent US7514245B2", "about": "“Method for producing chiral α-hydroxycarboxylic acids by enzymatic hydrolysis of chiral cyanohydrins” (DSM Fine Chemicals Austria NFG GmbH & Co. KG, priority 2003, dated 2009)", "key": {"[1]": {"biological_target": "T1, nitrile hydratase of Rhodococcus erythropolis NCIMB 11540 (Rhodococcus erythropolis, UniProt P13448+P13449)", "T1 construct": "made in house; host or cells: E. coli B BL21 (plasmid pMS470Nhase7.3 or pMSNhasetactac7.3), crude lysate", "T1 sequence (P13448 1-207)": "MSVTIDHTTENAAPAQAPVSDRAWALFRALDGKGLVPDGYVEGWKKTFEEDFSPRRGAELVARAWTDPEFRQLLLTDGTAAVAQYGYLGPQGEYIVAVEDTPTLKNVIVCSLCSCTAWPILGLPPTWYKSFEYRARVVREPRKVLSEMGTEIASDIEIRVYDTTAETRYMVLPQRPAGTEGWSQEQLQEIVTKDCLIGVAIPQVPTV", "T1 sequence (P13449 1-212)": "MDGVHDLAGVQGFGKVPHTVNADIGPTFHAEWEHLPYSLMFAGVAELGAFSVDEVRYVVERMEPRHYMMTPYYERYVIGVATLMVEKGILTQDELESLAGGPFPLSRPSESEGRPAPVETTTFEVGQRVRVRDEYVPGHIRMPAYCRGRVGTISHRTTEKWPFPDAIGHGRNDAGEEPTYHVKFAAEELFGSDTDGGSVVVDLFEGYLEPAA", "assay": "Hydrolysis using the recombinant enzyme (crude lysate of E. coli clone 7.3)", "type": "biochemical", "details": "substrate approximately 10 mM, 5% DMSO, 30° C., pH 7; for Activity of the nitrile hydratase: relative to 2-hydroxy-4-phenylbutyronitrile (100%)", "method": "In these reactions, cloned nitrile hydratase of Rhodococcus erythropolis NCIMB 11540 was used as crude lysate of E. coli clone 7.3 (produced according to Example 9).\n50 μl of crude lysate were diluted with 425 μl of buffer (K/Na—PO4 buffer, pH 7, 50 mM) and admixed with 25 μl of an approximately 220 mM substrate solution in DMSO (5 mg of protein/ml substrate concentration approximately 10 mM, 5% DMSO). The reaction was carried out in the Thermomixer at 30° C. and 1000 rpm. After 0, 2, 4, 6, 8, 10, 15, 20, 30, 60 and 120 minutes, in each case one Eppendorf was admixed with 0.5 ml of 1N HCl. After centrifugation (5 min, 13 000 rpm) and corresponding dilution, the concentrations of cyanohydrin and hydroxyamide were determined by HPLC. The activity of the nitrile hydratase was determined from the velocity of formation of hydroxyamide (gradient in the initial range). The standard substrate (100% activity) used was 2-hydroxy-4-phenylbutyronitile. The activity in the hydrolysis of the other substrates was compared with the activity on 2-hydroxy-4-phenylbutyronitrile (Tab. 5)."}, "[2]": {"system": "Rhodococcus erythropolis NCIMB 11540 cells", "assay": "Enzymatic hydrolysis at different substrate concentrations, Experiment 4.1", "type": "cell-based", "details": "5% DMSO, 30° C.", "method": "In experiment 4.1, the reaction was carried out on an analytical scale (reaction volume 1 ml) using 3 substrate concentrations (2.2 g/l, 6.6 g/l, 13.2 g/l).\nThe biocatalyst was produced according to Example 1, Variant II, 2 l of fermentation medium, harvest after 20 hours (OD546 6.1). The cells from 8 times 10 ml of fermentation solution were centrifuged off in culture tubes. The resultant cell mass was washed once in each case with 2 ml K/Na-phosphate buffer (pH 6.5, 50 mM). The contents of 2 tubes were lyophilized for determining the dry weight. • Weight: 1. 37 mg of lyophilized cells/10 ml fermentation solution • 2. 30 mg\nThe contents of the remaining 6 tubes were resuspended in 950 μl of buffer (OD approximately 40) and transferred to Eppendorfs. To each of these cell suspensions were added 50 μl of variously concentrated substrate solutions (3 concentrations, parallel batches, 5% DMSO as cosolvent). The Eppendorfs were shaken on the Thermomixer at 30° C. and 1000 rpm. For monitoring the conversion rate, in each case 200 μl were withdrawn and admixed with 200 μl of 1N HCl. After centrifugation (5 min, 13 000 rpm) and dilution, the conversion rates were determined by HPLC.\nFollowing concentrations of (R)-2-chloromandelonitrile were used: • a. Substrate solution: 11 mg of (R)-2-chloromandelonitrile in 250 μl of DMSO (approximately 260 mM) • Substrate concentration in the batch: 2.2 g/l (13.1 mM) • b. Substrate solution: 33 mg of (R)-2-chloromandelonitrile in 250 μl of DMSO (approximately […]) • Substrate concentration in the batch: substrate concentration: 6.6 g/l (39.4 mM) • c. Substrate solution: 66 mg of (R)-2-chloromandelonitrile in 250 μl of DMSO (approximately 1580 mM) • Substrate concentration in the batch: 13.2 g/l (78.8 mM)"}}, "data": [{"compound": "N#CC(O)c1ccccc1Cl", "note": "(stereo not shown)", "values": [{"measurement": "Activity of the nitrile hydratase", "setting": "[1]", "value": 100, "unit": "%"}]}, {"compound": "Cc1ccc(C(O)C#N)cc1", "note": "(stereo not shown)", "values": [{"measurement": "Activity of the nitrile hydratase", "setting": "[1]", "value": 60, "unit": "%"}]}, {"compound": "N#CC(O)CCc1ccccc1", "note": "(stereo not shown) [2-hydroxy-4-phenylbutyronitrile]", "values": [{"measurement": "activity of the nitrile hydratase in the crude lysate", "setting": "[1]; E. coli clone 7.3", "value": "approximately 0.3 μmol·mg^−1·min^−1"}]}, {"compound": "O=C(O)[C@H](O)c1ccccc1Cl", "note": "[(R)-2-chloromandelic acid]", "values": [{"measurement": "formation of (R)-2-chloromandelic acid", "setting": "[2]; batch a: 2.2 g/l (13.1 mM) (R)-2-chloromandelonitrile, 10 min", "value": 77, "unit": "%"}, {"measurement": "formation of (R)-2-chloromandelic acid", "setting": "[2]; batch a: 2.2 g/l (13.1 mM), 20 min", "value": 86, "unit": "%"}, {"measurement": "formation of (R)-2-chloromandelic acid", "setting": "[2]; batch a: 2.2 g/l (13.1 mM), 30 min", "value": 92, "unit": "%"}, {"measurement": "formation of (R)-2-chloromandelic acid", "setting": "[2]; batch a: 2.2 g/l (13.1 mM), 40 min", "value": 94, "unit": "%"}, {"measurement": "formation of (R)-2-chloromandelic acid", "setting": "[2]; batch a: 2.2 g/l (13.1 mM), 50 min", "value": 96, "unit": "%"}, {"measurement": "formation of (R)-2-chloromandelic acid", "setting": "[2]; batch b: 6.6 g/l (39.4 mM), 10 min", "value": 45, "unit": "%"}, {"measurement": "formation of (R)-2-chloromandelic acid", "setting": "[2]; batch b: 6.6 g/l (39.4 mM), 20 min", "value": 70, "unit": "%"}, {"measurement": "formation of (R)-2-chloromandelic acid", "setting": "[2]; batch b: 6.6 g/l (39.4 mM), 30 min", "value": 82, "unit": "%"}, {"measurement": "formation of (R)-2-chloromandelic acid", "setting": "[2]; batch b: 6.6 g/l (39.4 mM), 40 min", "value": 89, "unit": "%"}, {"measurement": "formation of (R)-2-chloromandelic acid", "setting": "[2]; batch b: 6.6 g/l (39.4 mM), 50 min", "value": 95, "unit": "%"}, {"measurement": "formation of (R)-2-chloromandelic acid", "setting": "[2]; batch c: 13.2 g/l (78.8 mM), 10 min", "value": 58, "unit": "%"}, {"measurement": "formation of (R)-2-chloromandelic acid", "setting": "[2]; batch c: 13.2 g/l (78.8 mM), 20 min", "value": 85, "unit": "%"}, {"measurement": "formation of (R)-2-chloromandelic acid", "setting": "[2]; batch c: 13.2 g/l (78.8 mM), 30 min", "value": 96, "unit": "%"}, {"measurement": "formation of (R)-2-chloromandelic acid", "setting": "[2]; batch c: 13.2 g/l (78.8 mM), 40 min", "value": 98, "unit": "%"}, {"measurement": "formation of (R)-2-chloromandelic acid", "setting": "[2]; batch c: 13.2 g/l (78.8 mM), 50 min", "value": 100, "unit": "%"}]}, {"compound": "N#CC(O)CCc1ccccc1", "note": "(stereo not shown) [drawing 3]", "values": [{"measurement": "Activity of the nitrile hydratase", "setting": "[1]", "value": 100, "unit": "%"}]}]}
